Results on nine molecules are retold here after patent US8778971B2, “Medicinal treatment of dermal diseases in companion animals” (Bridge Pharma, Inc., priority 2012, dated 2014).

The subject of one data set is mice. In words: Sedative effects in mice, physostigmine lethality test. The conditions noted are these: mice. The procedure:
In short, physostigmine (1.0 mg/kg to 2.0 mg/kg, s.c.) generally results in 100% lethality when given to groups of mice (10 mice/group) transferred into a small volume of space. Mice administered a sedating drug prior to the physostigmine injection are protected from the stress and survive. In the present study, test compounds were given orally 60 minutes prior to physostigmine injection. The number of surviving (sedated) mice was counted 30 minutes after injection of the physostigmine dose.

Data set [1] relates to histamine-induced wheal response. The experiment in a line: Antihistaminic activity in vivo, intradermal histamine wheal. Further details: species or system rats. The conditions noted are these: rat, oral 10 mg/kg; versus vehicle baseline. The procedure: Male rats (150-200 g) were fasted overnight and twelve hours after dorsal depilation, the animals were orally pretreated with the test compound(s). Four dorsal test areas were marked with permanent ink, carefully avoiding the area closest to the spine. […] Two intradermal injections of the vehicle for the histamine solution were also performed. […] Twenty minutes were allowed for the wheal response to fully develop, whereupon the animals were euthanized and the dorsal skin with the intradermal wheals were deflected. The blue spotted areas were measured in square millimeters and the duplicate wheal areas were averaged. […] The inhibition was calculated in percent difference from said baseline values.

Data set [2] deals with human leukocytes (buffy coat). The experiment in a line: Inhibition of A23187-stimulated histamine release from leukocytes. Format: cell-based. The settings on record: Homo sapiens, Leukocyte, 20 min; A23187 5 μM, 20 min/37° C.; read-out: Inhibition of inflammatory mediator (histamine) release; IC50. As to the method:
In these studies, histamine was the marker compound for inflammatory mediators that are released from mast cells and other pro-inflammatory cells in patients with atopic inflammatory diseases. The inhibition of stimulated histamine release from human leukocytes (buffy coat) by test articles was studied. Leukocytes were obtained from healthy volunteers and histamine release was induced by incubation (20 min/37° C.) with the calcium ionophore A23187 (5 μM) in the presence or absence of a test article. Histamine was analyzed by enzyme-immune assays, using commercially available kits and a microplate reader (MRX, Dynatech). The test articles were evaluated, in duplicate, at five concentrations.

In another data set the test system is croton oil-treated ears. The experiment in a line: Croton oil ear inflammation, systemic (ip) administration. The settings on record: mice, 10 mg/kg ip. Format: in vivo. The procedure:
In order to investigate the effects of systemic administration of the test compounds in dermal inflammation, a croton oil model was used as is known in the art. This test consists of topical application of 20 μl of 1.0% croton oil to each ear of male mice, weighing 28-32 g. […] Application of the croton oil results in an inflammatory response. The weight of croton oil-treated ears was determined and the percent increase in ear weight is calculated. Test articles were dosed systemically (ip). […] All results represent mean ear weights (±S.E.M.) from 10 ears.

A further data set relates to dogs. The experiment in a line: Sedative effects in dogs, cross-over oral dosing. The data set is classed as in vivo. The settings on record: for Frequency of sedation: 20 mg/kg/day oral. As to the method:
Sedation studies in dogs were performed according to a cross-over protocol, where the dogs were administered once daily the test articles orally at a dose of 20 mg/kg bodyweight that in a previous toxicology study was marginally toxic in dogs with equal plasma concentrations of R-norketotifen and S-norketotifen.
The test articles were administered in gelatin capsules and vehicle-capsules were empty. All dogs were healthy beagles (four males and two females), age 24-36 months, weighing 7.8-10.6 kg. The dogs were dosed at 9-10 AM and had been fasted overnight before dosing. There was a washout period of at least three days in all dogs between the tests. All assessments of sedation/sleepiness were made by a qualified (D.V.M.) scientist with extensive experience (>15 years) in studies with conscious laboratory dogs. The test articles were in the form of hydrogen fumarate salts.
It had previously been observed that dogs rarely express sedation in response to oral administration of benzocycloheptathiophene compounds on the first day of dosing and the dogs were therefore administered the test articles for three consecutive days.

The next data set has as its system rats. In words: Acute toxicity, Up-and-Down Procedure. The conditions noted are these: RAT, hydrogen fumarate salts. Format: in vivo. As to the method: Acute toxicological studies were performed in rats (Sprague-Dawley; M and F; 200-250 grams). The animal-sparing Up-and-Down Procedure (FDA, OECD) was used. Both oral and intravenous toxicity tests were performed.
Both compounds were administered as hydrogen fumarate salts.

On to `Clc1ccc2c(c1)CCc1cccnc1C2=C1CCNCC1` [DESLORATADINE], for which the Sedated animals with mice (oral dose 150 mg/kg) is 0/10.
For orientation: inhibition means the drop in the measured response relative to a control, in per cent. The low end stands for little suppression, the high end for strong suppression. In turn, `CN(C)CCOC(c1ccccc1)c1ccccc1` [DIPHENHYDRAMINE] returned an inhibition at 10 mg/kg in data set [1] of 31%. Moreover, the Sedated animals in the data set on mice (oral dose 50 mg/kg) is 5/10; in the data set with mice (oral dose 100 mg/kg), 8/10.
For `OCCOCCN1CCN(C(c2ccccc2)c2ccc(Cl)cc2)CC1` (stereo not drawn) [HYDROXYZINE], the Sedated animals in the data set on mice (oral dose 100 mg/kg) was 9/10.
With `CN1CCC(=C2c3ccccc3CC(=O)c3sccc32)CC1` [Ketotifen, 4-(1-methyl-4-piperidyline)-4H-benzo(4,5)-cyclohepta-(1,2-b) thiophene-10-one, reference compound], the IC50 in data set [2] amounted to 91 µM. For the same molecule, the “Average Ear weight ±SEM” value in the data set with croton oil-treated ears (90 min) came out at 37 ± 1 mg; with croton oil-treated ears (120 min), 42 ± 1 mg. For the same molecule, the Sedated animals in the data set with mice (oral dose 25 mg/kg) is 5/10; in the data set on mice (oral dose 50 mg/kg) it was 8/10; in the data set on mice (oral dose 100 mg/kg) it was 10/10. Moreover, the results for the Frequency of sedation with dogs (DAY 1), in the data set on dogs (DAY 2) and in the data set with dogs (DAY 3) were 0/6, 5/6 and 5/6, respectively. For the same molecule, the “Sedation in dogs (in words)” value with dogs (oral) was “causes sedation in dogs”. Also, the entries for the “Acute toxicity (estimated LD50)” value in the data set on rats (intravenous) and with rats (oral) were 5 to 10 mg/kg and less than 300 mg/kg, respectively.
Consider `CCOC(=O)N1CCC(=C2c3ccc(Cl)cc3CCc3cccnc32)CC1` [LORATADINE], for which the Sedated animals with mice (oral dose 150 mg/kg) is reported as 1/10.
Take `COc1ccc(CN(CCN(C)C)c2ccccn2)cc1` [PYRILAMINE]: the Sedated animals in the data set with mice (oral dose 100 mg/kg) is 8/10.
Turning to `O=C1Cc2ccccc2C(=C2CCNCC2)c2ccsc21` [R-NORKETOTIFEN], the Sedated animals with mice (oral dose 100 mg/kg, 100 mg/kg) is 3/10; in the data set on mice (oral dose 150 mg/kg, 150 mg/kg) it was 3/10.
With `O=C1Cc2ccccc2C(=C2CCNCC2)c2ccsc21` [S-NORKETOTIFEN], the Sedated animals in the data set with mice (oral dose 100 mg/kg, 100 mg/kg) is given as 0/10; with mice (oral dose 150 mg/kg, 150 mg/kg) it was 0/10.
`CC(C)(C)c1ccc(C(O)CCCN2CCC(C(O)(c3ccccc3)c3ccccc3)CC2)cc1` (stereo not drawn) [TERFENADINE]: the Sedated animals in the data set with mice (oral dose 150 mg/kg) is given as 0/10.
